Measurements published in US9266832B2, “Compounds for the treatment of neurodegenerative diseases” (Katholieke Universiteit Levun, priority 2010, dated 2016).

tested on: M17-TAU P301L cells; assay: Tau-induced toxicity experiment: LDH leakage of retinoic acid incubated M17-TAU P301L cells; assay type: cell-based; conditions: Homo sapiens, Neuroblastoma cell, 168 h; reduction of LDH activity of retinoic acid incubated M17-TAU P301L neuroblastoma cells, 7 days
Text: A TAU expression plasmid was constructed by sub-cloning the cDNA of human TAU-P301L (encoding for TAU with proline 301 substituted by a leucine residue) into mammalian expression vector pcDNA3.1 resulting in plasmid pcDNA3.1-TAU P301L. Plasmids pcDNA3.1 and pcDNA3.1-TAU P301L were transfected to human neuroblastoma cells ([…]; ATCC No. CRL-2267) and independent clonal lines with the plasmids stably integrated into the genome were selected. […] Expression of the TAU P301L genes in the cell lines was confirmed by Western analysis.
In degenerated or dead cells lactate dehydrogenase (LDH) is leaked out of the cells into the extracellular environment due to a loss of plasma-membrane integrity. This principle was used to determine cytotoxicity by quantifying the level of leaked LDH into the growth medium.
The detailed method for determining TAU cytotoxicity was as follows: From appropriate precultures of M17-3.1 and M17-TAU(P301L) cells were seeded at 2500 cells/cm2 in Optimem Reduced Serum without phenol red (Gibco, Cat. 31985-047) supplemented with 1% fetal calf serum, 1 mM sodium pyruvate, 1× non-essential amino acids, 500 μg/ml G418 0.5× antibiotic/antimycotic. After 3 h of incubation at 37° C./5% CO2 1 volume of Optimem Reduced Serum (same as described above; except without fetal calf serum) supplemented with 2.5 μM retinoic acid (RA) was added. The cells were further incubated for 7 days. Subsequently, LDH activity was determined using Promega Cytotox 96 Non-Radioactive cytotoxicity assay, (Cat. G1780) according the supplier's instructions.
The M17-TAU P301L cell line made it possible to assess the ability of novel compounds to counteract TAU cytotoxicity. […] These measurements were used to calculate EC50 values of table 2.

Row | Structure (SMILES) | EC50 [µM]
1 | O=C(NCCc1c[nH]c2ccc(Cl)cc12)c1cccc(CNCc2ccccc2)c1 [Cpd023, 3-((benzylamino)methyl)-N-(2-(5-chloro-1H-indol-3-yl)ethyl)benzamide] | 0.094
2 | O=C(NCCc1c[nH]c2ccc(Cl)cc12)c1cccc(Cc2cccc(F)c2)n1 [Cpd117, N-(2-(5-chloro-1H-indol-3-yl)ethyl)-6-(3-fluorobenzyl)picolinamide] | 0.109
3 | N#Cc1cccc(Nc2cccc(C(=O)NCCc3c[nH]c4ccc(Cl)cc34)c2)c1 [Cpd064, N-(2-(5-chloro-1H-indol-3-yl)ethyl)-3-(3-cyanophenylamino)benzamide] | 0.122
4 | O=C(NCCc1c[nH]c2ccc(Cl)cc12)c1cccc(CNCc2cccs2)c1 [Cpd022, N-(2-(5-chloro-1H-indol-3-yl)ethyl)-3-((thiophen-2-ylmethylamino)methyl)benzamide] | 0.159
5 | Cc1cccc(Oc2cccc(C(=O)NCCc3c[nH]c4ccc(Cl)cc34)c2)c1 [Cpd090, N-(2-(5-chloro-1H-indol-3-yl)ethyl)-3-(m-tolyloxy)benzamide] | 0.091
6 | CN(c1ccc(C(=O)NCCc2c[nH]c3ccc(Cl)cc23)cc1)c1cccc(F)c1 [Cpd104, N-(2-(5-chloro-1H-indol-3-yl)ethyl)-4-((3-fluorophenyl)(methyl)amino)benzamide] | 0.264
7 | O=C(NCCc1c[nH]c2ccc(Cl)cc12)c1ccc(Oc2ccccc2)cc1 [Cpd093, N-(2-(5-chloro-1H-indol-3-yl)ethyl)-4-phenoxybenzamide] | 0.293
8 | COc1cccc(Cc2cccc(C(=O)NCCc3c[nH]c4ccc(Cl)cc34)c2)c1 [Cpd058, N-(2-(5-chloro-1H-indol-3-yl)ethyl)-3-(3-methoxybenzyl)benzamide] | 0.125
9 | O=C(NCCc1c[nH]c2ccc(Cl)cc12)c1ccc(Cc2ccccc2F)cc1 [Cpd049, N-(2-(5-chloro-1H-indol-3-yl)ethyl)-4-(2-fluorobenzyl)benzamide] | 0.031
10 | O=C(NCCc1c[nH]c2ccc(Cl)cc12)c1cccc(CNC2CCCCC2)c1 [Cpd024, N-(2-(5-chloro-1H-indol-3-yl)ethyl)-3-((cyclohexylamino)methyl)benzamide] | 0.724
11 | O=C(NCCc1c[nH]c2ccc(Cl)cc12)c1cccc(Cc2ccco2)c1 [Cpd077, N-(2-(5-chloro-1H-indol-3-yl)ethyl)-3-(furan-2-ylmethyl)benzamide] | 0.017
12 | Cc1cccc(Cc2cccc(C(=O)NCCc3c[nH]c4ccc(Cl)cc34)c2)c1 [Cpd035, N-(2-(5-chloro-1H-indol-3-yl)ethyl)-3-(3-methylbenzyl)benzamide] | 0.06
13 | O=C(NCCc1c[nH]c2ccc(Cl)cc12)c1ccc(Cc2ccsc2)cc1 [Cpd080, N-(2-(5-chloro-1H-indol-3-yl)ethyl)-4-(thiophen-3-ylmethyl)benzamide] | 0.018
14 | COc1cccc(Cc2cccc(C(=O)NCCc3c[nH]c4ccc(Cl)cc34)c2)c1F [Cpd066, N-(2-(5-chloro-1H-indol-3-yl)ethyl)-3-(2-fluoro-3-methoxybenzyl)benzamide] | 0.386
15 | O=C(NCCc1c[nH]c2ccc(Cl)cc12)c1ccc(Oc2cccc(F)c2)cc1 [Cpd105, N-(2-(5-chloro-1H-indol-3-yl)ethyl)-4-(3-fluorophenoxy)benzamide] | 0.112
16 | Cc1ccccc1Cc1ccc(C(=O)NCCc2c[nH]c3ccc(Cl)cc23)cc1 [Cpd028, N-(2-(5-chloro-1H-indol-3-yl)ethyl)-4-(2-methylbenzyl)benzamide] | 0.37
17 | COc1ccc(Cc2ccc(C(=O)NCCc3c[nH]c4ccc(Cl)cc34)cc2)cc1 [Cpd056, N-(2-(5-chloro-1H-indol-3-yl)ethyl)-4-(4-methoxybenzyl)benzamide] | 0.07
18 | O=C(NCCc1c[nH]c2ccc(Cl)cc12)c1ccc(Cc2cccc(F)c2)cn1 [Cpd107, N-(2-(5-chloro-1H-indol-3-yl)ethyl)-5-(3-fluorobenzyl)picolinamide] | 0.026
19 | N#Cc1ccc(Cc2ccc(C(=O)NCCc3c[nH]c4ccc(Cl)cc34)cc2)cc1 [Cpd031, N-(2-(5-chloro-1H-indol-3-yl)ethyl)-4-(4-cyanobenzyl)benzamide] | 0.016
20 | O=C(NCCc1c[nH]c2ccc(Cl)cc12)c1ccc(Cc2ccco2)cc1 [Cpd087, N-(2-(5-chloro-1H-indol-3-yl)ethyl)-4-(furan-2-ylmethyl)benzamide] | 0.133
21 | O=C(NCCc1c[nH]c2ccc(Cl)cc12)c1ccc(Cc2cc(F)ccc2F)cc1 [Cpd102, N-(2-(5-chloro-1H-indol-3-yl)ethyl)-4-(2,5-difluorobenzyl)benzamide] | 0.049

Row | Structure (SMILES) | EC50 [µM]
22 | Cc1ccc2[nH]cc(CCNC(=O)c3ccc(Cc4cccc(F)c4)cc3)c2c1 [Cpd084, 4-(3-fluorobenzyl)-N-(2-(5-methyl-1H-indol-3-yl)ethyl)benzamide] | 0.026
23 | O=C(NCCc1c[nH]c2ccc(Cl)cc12)c1ccc(Cc2ccc(Cl)cc2)cc1 [Cpd045, N-(2-(5-chloro-1H-indol-3-yl)ethyl)-4-(4-chlorobenzyl)benzamide] | 0.022
24 | O=C(NCCc1c[nH]c2ccc(Cl)cc12)c1ccc(Cc2cccc(F)c2)cc1 [Cpd048, N-(2-(5-chloro-1H-indol-3-yl)ethyl)-4-(3-fluorobenzyl)benzamide] | 0.013
25 | O=C(NCCc1c[nH]c2ccc(Cl)cc12)c1cccc(Oc2ccccc2)c1 [Cpd095, N-(2-(5-chloro-1H-indol-3-yl)ethyl)-3-phenoxybenzamide] | 0.241
26 | N#Cc1ccccc1Cc1cccc(C(=O)NCCc2c[nH]c3ccc(Cl)cc23)c1 [Cpd060, N-(2-(5-chloro-1H-indol-3-yl)ethyl)-3-(2-cyanobenzyl)benzamide] | 0.116
27 | Cc1cccc(C)c1Cc1ccc(C(=O)NCCc2c[nH]c3ccc(Cl)cc23)cc1 [Cpd062, N-(2-(5-chloro-1H-indol-3-yl)ethyl)-4-(2,6-dimethylbenzyl)benzamide] | 0.398
28 | O=C(NCCc1c[nH]c2ccc(Cl)cc12)c1cccc(Cc2cncc(F)c2)c1 [Cpd069, N-(2-(5-chloro-1H-indol-3-yl)ethyl)-3-((5-fluoropyridin-3-yl)methyl)benzamide] | 0.09
29 | O=C(NCCc1c[nH]c2ccc(Cl)cc12)c1cccc(Cc2ccccc2F)c1 [Cpd054, N-(2-(5-chloro-1H-indol-3-yl)ethyl)-3-(2-fluorobenzyl)benzamide] | 0.042
30 | O=C(NCc1c[nH]c2ccc(Cl)cc12)c1ccc(Cc2cc(F)cc(F)c2)cc1 [Cpd073, N-((5-chloro-1H-indol-3-yl)methyl)-4-(3,5-difluorobenzyl)benzamide] | 0.242
31 | O=C(NCCc1c[nH]c2ccc(Cl)cc12)c1ccc(Cc2ccoc2)cc1 [Cpd081, N-(2-(5-chloro-1H-indol-3-yl)ethyl)-4-(furan-3-ylmethyl)benzamide] | 0.023
32 | COc1cccc(Oc2cccc(C(=O)NCCc3c[nH]c4ccc(Cl)cc34)c2)c1 [Cpd089, N-(2-(5-chloro-1H-indol-3-yl)ethyl)-3-(3-methoxyphenoxy)benzamide] | 0.098
33 | O=C(NCCc1c[nH]c2ccc(Cl)cc12)c1cccc(Cc2cccc(Cl)c2)c1 [Cpd055, N-(2-(5-chloro-1H-indol-3-yl)ethyl)-3-(3-chlorobenzyl)benzamide] | 0.036
34 | O=C(NCCc1c[nH]c2ccc(Cl)cc12)c1cccc(Cc2ccoc2)c1 [Cpd083, N-(2-(5-chloro-1H-indol-3-yl)ethyl)-3-(furan-3-ylmethyl)benzamide] | 0.056
35 | O=C(NCCc1c[nH]c2ccc(Cl)cc12)c1cccc(Cc2ccccc2)c1 [Cpd010, 3-benzyl-N-(2-(5-chloro-1H-indol-3-yl)ethyl)benzamide] | 0.078
36 | O=C(NCCc1c[nH]c2ccc(Cl)cc12)c1ccc(Cc2ccc(C(F)(F)F)cc2)cc1 [Cpd039, N-(2-(5-chloro-1H-indol-3-yl)ethyl)-4-(4-(trifluoromethyl)benzyl)benzamide] | 0.022
37 | O=C(NCCc1c[nH]c2ccc(Cl)cc12)c1ccc(CNCc2ccccc2)cc1 [Cpd019, 4-((benzylamino)methyl)-N-(2-(5-chloro-1H-indol-3-yl)ethyl)benzamide] | 0.103
38 | Cn1cc(CCNC(=O)c2ccc(Cc3cccc(F)c3)cc2)c2cc(Cl)ccc21 [Cpd091, N-(2-(5-chloro-1-methyl-1H-indol-3-yl)ethyl)-4-(3-fluorobenzyl)benzamide] | 0.581
39 | O=C(NCCc1c[nH]c2ccc(Cl)cc12)c1ccc(Cc2ccccc2C(F)(F)F)cc1 [Cpd041, N-(2-(5-chloro-1H-indol-3-yl)ethyl)-4-(2-(trifluoromethyl)benzyl)benzamide] | 0.08
40 | O=C(NCCc1c[nH]c2ncc(Cl)cc12)c1ccc(Cc2cccc(F)c2)cc1 [Cpd101, N-(2-(5-chloro-1H-pyrrolo[2,3-b]pyridin-3-yl)ethyl)-4-(3-fluorobenzyl)benzamide] | 1.05
41 | N#Cc1ccc(Cc2cccc(C(=O)NCCc3c[nH]c4ccc(Cl)cc34)c2)cc1 [Cpd037, N-(2-(5-chloro-1H-indol-3-yl)ethyl)-3-(4-cyanobenzyl)benzamide] | 0.032
42 | O=C(NCCc1c[nH]c2ccc(Cl)cc12)c1ccc(Cc2ccc(F)cc2)cc1 [Cpd061, N-(2-(5-chloro-1H-indol-3-yl)ethyl)-4-(4-fluorobenzyl)benzamide] | 0.086
